Structures can show the parent of a compound that is named as a salt.
System: dentin postoperative hypersensitivity of human teeth
Experiment: Clinical evaluation of post-operative dentin hypersensitivity in amalgam restoration patients
Type: in vivo
Procedure: Prior to anesthesia for pre-treatment evaluation and during the first week of treatment, the patients completed a questionnaire on pain. The patients were also evaluated post-operatively at one, three and six weeks. […] Only patients who had elected amalgam restoration procedures at UAB were employed for this study. Each tooth received a pre anesthesia evaluation for dentin postoperative hypersensitive with a cold stimulus and air jet for thermal testing. For cold-ice testing, plastic needle covers were filled with water and frozen in a refrigerator freezer for uses as the standardized cold stimulus. For air stimulation, the standardized baseline air jet from a syringe was used to direct a blast of air at the offending tooth and defective restoration. A randomized number chart was employed to select teeth for either the Copalite® varnish controls or teeth to be treated with the product of the present invention, potassium oxalate dihydrate. Following pre operative data collection and anesthesia, each tooth then received a routine intracoronal Class-I or Class-II cavity preparations. […] Following cavity preparation, rinsing and gentle air drying, the entire preparation surface was treated with the Copalite® varnish without modification or removal of the smear layer. Each control cavity was treated with three layers of copal varnish and each layer gently air dispersed with a chip syringe before the following Copalite® coat was applied. […] The patient was also evaluated for postoperative hypersensitivity at one, three and six weeks post-operatively. […] Thermal tests for ice and an air jet were administered and data recorded as for all of the previous tests. For base line data, each patient was evaluated for pain or sensitivity to cold and air prior to their treatment in this study. […] All data was analyzed by one-way Analysis of Variance (ANOVA) at the 0.05 level depending on the cell sizes in our contingency table of treatments versus responses. […] Responses from each of the patients were recorded on separate sheets and then tabulated onto the master sheet according to the identified criteria. The raw data were recorded from the McGill Visual Analog Scale (MVAS) evaluation sheets. Data were recorded from all patients experiencing none, some or severe post-operative hypersensitivity based on the patient responses at the various intervals, preoperative at 0 days, and post treatment […]. […] The date for each of the McGill VA scales were tabulated and recorded on a separate sheet with the patient's name and clinical record number-as a 10 centimeter straight line with no identifying marks along its axis.

SMILES: O=C(O)C(=O)O [potassium oxalate dihydrate, oxalate acid potassium salt, dihydrate 99%]
- patients pain free following the first procedure (MVA survey, post-operative): 88.5%
- reduction in post-operative pain (collective MVA scale data) (McGill Visual Analog Scale, treated teeth): dramatic reduction
- overall pain reduction for the cold discriminator measurement (cold stimulus, compared with Copalite): greater reduction
- reduction in sensitivity / reported pain to the various stimuli (especially cold), in response to direct questioning (patients, post-operatively after amalgam restoration): 80.3%
